Legend:
Type in all cases: cell-based
5-HT2A receptor = 5-HT2A receptor (Homo sapiens, UniProt P28223); experiment: Calcium flux test for 5-HT2A receptor; settings: CHO cell strain stably expressing 5-HT2A receptor
D2L receptor = molecular target: T1, D2L receptor (Homo sapiens, UniProt P14416); experiment: D2L receptor cAMP agonist test; settings: HEK293 cell strain stably expressing D2L receptor
T1 construct: expressed in transfected cells

D2S receptor = molecular target: T2, D2S receptor (Homo sapiens, UniProt P14416); experiment: D2S receptor cAMP agonist test; settings: HEK293 cell strain stably expressing D2S receptor
T2 construct: expressed in transfected cells
T2 sequence (P14416 1-414 isoform P14416-2): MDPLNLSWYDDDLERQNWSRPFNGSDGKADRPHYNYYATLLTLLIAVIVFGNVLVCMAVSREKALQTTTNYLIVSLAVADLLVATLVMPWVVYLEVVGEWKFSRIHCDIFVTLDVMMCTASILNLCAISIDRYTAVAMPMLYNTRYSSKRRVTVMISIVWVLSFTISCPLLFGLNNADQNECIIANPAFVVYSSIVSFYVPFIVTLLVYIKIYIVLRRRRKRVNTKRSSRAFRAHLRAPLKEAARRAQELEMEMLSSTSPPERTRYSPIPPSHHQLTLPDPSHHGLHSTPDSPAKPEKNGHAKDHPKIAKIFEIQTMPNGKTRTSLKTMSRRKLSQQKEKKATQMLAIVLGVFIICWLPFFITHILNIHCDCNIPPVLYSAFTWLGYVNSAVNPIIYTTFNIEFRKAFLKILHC

T1 sequence (P14416 whole entry): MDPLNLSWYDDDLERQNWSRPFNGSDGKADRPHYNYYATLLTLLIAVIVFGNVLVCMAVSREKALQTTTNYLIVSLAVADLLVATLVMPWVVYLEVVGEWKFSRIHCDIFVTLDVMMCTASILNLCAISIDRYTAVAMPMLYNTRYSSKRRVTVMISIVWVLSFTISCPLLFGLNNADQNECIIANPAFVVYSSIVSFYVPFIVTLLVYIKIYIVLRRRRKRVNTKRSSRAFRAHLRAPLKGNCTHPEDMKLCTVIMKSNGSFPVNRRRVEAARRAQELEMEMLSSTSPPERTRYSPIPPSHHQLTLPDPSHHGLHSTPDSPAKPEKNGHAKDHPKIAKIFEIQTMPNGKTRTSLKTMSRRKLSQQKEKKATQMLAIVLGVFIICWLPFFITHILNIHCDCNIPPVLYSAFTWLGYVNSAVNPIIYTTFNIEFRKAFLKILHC
Sequence of 5-HT2A receptor (P28223 whole entry): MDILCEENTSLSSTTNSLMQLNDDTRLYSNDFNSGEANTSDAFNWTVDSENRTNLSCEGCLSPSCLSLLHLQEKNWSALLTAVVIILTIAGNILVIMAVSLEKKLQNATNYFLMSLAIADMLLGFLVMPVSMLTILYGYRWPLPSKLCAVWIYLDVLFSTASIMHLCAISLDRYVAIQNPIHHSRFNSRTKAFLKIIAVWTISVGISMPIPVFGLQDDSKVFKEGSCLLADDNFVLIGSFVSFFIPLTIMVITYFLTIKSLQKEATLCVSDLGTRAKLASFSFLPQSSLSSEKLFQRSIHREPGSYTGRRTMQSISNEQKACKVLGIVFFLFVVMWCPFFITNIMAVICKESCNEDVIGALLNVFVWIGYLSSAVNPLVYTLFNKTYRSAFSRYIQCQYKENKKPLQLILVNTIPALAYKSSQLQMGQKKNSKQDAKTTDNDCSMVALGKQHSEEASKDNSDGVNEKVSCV

With `O=C1Nc2cc(OCCCCN3CCN(c4cccc(Cl)c4Cl)CC3)ccc2C2CC12` (stereo not drawn) [Example 1, 5-(4-(4-(2,3-Dichlorophenyl)piperazin-1-yl)butoxy)-3,7b-dihydro-1H-cyclopropa[c]quinolin-2(1aH)-one] the IC50 (5-HT2A receptor; calcium flux, antagonism of serotonin) was 731000 pM, the “5-HT2A Max Inh %” value (5-HT2A receptor; positive control ketanserin 10^−7 M) was 98.4% and the EC50 (D2L receptor; cAMP, forskolin 0.5 μM) was 620 pM. For the same molecule, the “D2L Max Act %” value (D2L receptor; positive control dopamine 1 μM) was 54.4%, the EC50 (D2S receptor; cAMP, forskolin 5×10^−7 M) was 970 pM and the “D2S Max Act %” value (D2S receptor; positive control dopamine 1×10^−7 M) was 114.9%.
